Where only a bound is given, the exact number is not on record here.

The text below walks through data of patent US20110092476A1, “Bicycloheteroaryl compounds as P2X7 modulators and uses thereof” (Renovis, Inc., priority 2006, published 2011).

The first experiment deals with T1, P2X7 receptor (Homo sapiens, UniProt Q99572).
T1 construct: host or cells: THP-1 cells differentiated with LPS and IFN-γ
T1 sequence (Q99572 1-595): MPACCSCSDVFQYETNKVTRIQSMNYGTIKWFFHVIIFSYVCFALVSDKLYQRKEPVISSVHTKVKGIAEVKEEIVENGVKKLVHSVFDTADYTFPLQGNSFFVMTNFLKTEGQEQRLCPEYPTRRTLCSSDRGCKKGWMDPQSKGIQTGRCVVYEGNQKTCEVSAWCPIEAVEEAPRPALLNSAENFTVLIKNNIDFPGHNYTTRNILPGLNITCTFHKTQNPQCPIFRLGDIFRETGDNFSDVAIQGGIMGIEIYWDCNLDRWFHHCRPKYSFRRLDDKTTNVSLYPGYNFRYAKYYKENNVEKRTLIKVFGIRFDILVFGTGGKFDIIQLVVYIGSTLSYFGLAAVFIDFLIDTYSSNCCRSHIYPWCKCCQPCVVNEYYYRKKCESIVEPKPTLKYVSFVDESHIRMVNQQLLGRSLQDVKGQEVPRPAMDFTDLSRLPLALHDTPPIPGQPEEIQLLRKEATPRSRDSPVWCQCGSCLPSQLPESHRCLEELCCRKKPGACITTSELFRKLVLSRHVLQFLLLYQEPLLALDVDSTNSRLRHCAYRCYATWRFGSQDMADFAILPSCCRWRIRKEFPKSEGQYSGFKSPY
The experiment can be described thus: IL-1β release assay in differentiated THP-1 cells stimulated with BzATP (Example 9). It is filed as cell-based. As to conditions: 0.1 μM compound (symbols *); differentiated THP-1 cells, BzATP 250 uM; read-out: IL-1β % Inhib. @ 0.3 or 0.1 uM. The essentials: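 THP-1 cells differentiated 16 h with 100 ng/mL LPS and 100 ng/mL IFN-γ, primed 2 h with fresh LPS, pretreated 30 min with compound, then stimulated 45 min with 250 uM BzATP (final). Supernatant IL-1β measured by ELISA; background-adjusted percent inhibition fitted to a four-parameter logistic for IC50.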
On to `CCOc1cccc(C(=O)Nc2cccc3c(=O)n(CC(C)(C)O)ccc23)c1` [Compound 193], for which the inhibition at 0.1 µM was 0 to 25%.
As for `Cc1ccc(C(=O)Nc2cccc3c(=O)n(C(C)CO)ccc23)c(C)c1` (stereo not drawn) [Compound 99], the inhibition at 0.1 µM was 0 to 25%.
On the same count and under the same terms, as for `CCOc1ccc(C(=O)Nc2cccc3c(=O)n(CC(C)O)ccc23)cc1` (stereo not drawn) [Compound 145], the figure is 0 to 25%.
On the same count and under the same terms, the same measure for `CC(CO)n1ccc2c(NC(=O)CCc3ccc4c(c3)OCO4)cccc2c1=O` (stereo not drawn) [Compound 94]: 0 to 25%.
Still for that read-out and setting: the same measure for `COc1ccc(C(=O)Nc2cccc3c(=O)n(CC(C)O)ccc23)cc1Cl` (stereo not drawn) [Compound 131]: 0 to 25%; for `CC(CO)n1ccc2c(NC(=O)c3cccc4c3OCCO4)cccc2c1=O` (stereo not drawn) [Compound 116]: 0 to 25%; for `COc1ccc(C(=O)Nc2cccc3c(=O)n(CC4(O)CCCCC4)ccc23)c(C)c1` [Compound 83]: 0 to 25%.
On to `COc1ccc(CC(=O)Nc2cccc3c(=O)n(CC(C)O)ccc23)cc1C` (stereo not drawn) [Compound 177], for which the inhibition at 0.1 µM fell in the range of 0 to 25%.
In the case of `Cc1cc(C)c(CC(=O)Nc2cccc3c(=O)n(CC(C)(C)O)ccc23)c(C)c1` [Compound 190], the inhibition at 0.1 µM fell in the range of 0 to 25%.
The same measure, in the same setting: the same measure for `COc1ccc(C(=O)Nc2cccc3c(=O)n(C(C)CO)ccc23)cc1Cl` (stereo not drawn) [Compound 92]: 0 to 25%; for `Cc1ccc(C)c(C(=O)Nc2cccc3c(=O)n(C(C)CO)ccc23)c1` (stereo not drawn) [Compound 100]: 0 to 25%; for `Cc1cccc(C(=O)Nc2cccc3c(=O)n(CC4(O)CCCCC4)ccc23)c1C` [Compound 85]: 0 to 25%.
On the same count and under the same terms, as for `Cc1ccc(Cl)c(C(=O)Nc2cccc3c(=O)n(C(C)CO)ccc23)c1` (stereo not drawn) [Compound 121], the figure is 0 to 25%.
On the same count and under the same terms, as for `CC(CO)n1ccc2c(NC(=O)c3ccccc3Cl)cccc2c1=O` (stereo not drawn) [Compound 95], the figure is 0 to 25%; as for `CC(CO)n1ccc2c(NC(=O)c3ccc(Cl)cc3Cl)cccc2c1=O` (stereo not drawn) [Compound 96], 0 to 25%; as for `COc1cccc(CCC(=O)Nc2cccc3c(=O)n(CC4(O)CCCCC4)ccc23)c1` [Compound 10], 0 to 25%.
As for `CC(CO)n1ccc2c(NC(=O)c3cc(Cl)ccc3Cl)cccc2c1=O` (stereo not drawn) [Compound 97], the inhibition at 0.1 µM was 0 to 25%.
Same read-out and setting: as for `Cc1ccccc1CCC(=O)Nc1cccc2c(=O)n(CC3(O)CCCCC3)ccc12` [Compound 84], the figure is 0 to 25%; as for `Cc1cccc(CC(=O)Nc2cccc3c(=O)n(CC(C)O)ccc23)c1` (stereo not drawn) [Compound 159], 0 to 25%.
Still for that read-out and setting: the same measure for `Cc1ccc(C)c(CC(=O)Nc2cccc3c(=O)n(CC(C)(C)O)ccc23)c1` [Compound 191]: 0 to 25%.
The same measure, in the same setting: as for `COc1ccc(OC)c(CC(=O)Nc2cccc3c(=O)n(C(C)CO)ccc23)c1` (stereo not drawn) [Compound 108], the figure is 0 to 25%; as for `CC(CO)n1ccc2c(NC(=O)CCCc3ccccc3)cccc2c1=O` (stereo not drawn) [Compound 111], 0 to 25%.
On to `COc1ccc(C(=O)Nc2cccc3c(=O)n(CC(C)O)ccc23)c(C)c1` (stereo not drawn) [Compound 125], for which the inhibition at 0.1 µM lay in the range of 0 to 25%.

The experiment is the same for the next values; noted with them: 0.1 μM compound; differentiated THP-1 cells, BzATP 250 uM; "*" symbols; read-out: IL-1β % Inhib. @ 0.3 or 0.1 uM.
`Cc1c(Cl)cccc1C(=O)Nc1cccc2c(=O)n(CC(C)(C)O)ccc12` [Compound 225]: the inhibition at 0.1 µM lay in the range of 0 to 25%.
Still for that read-out and setting: as for `Cc1ccc(C(=O)Nc2cccc3c(=O)n(CC(C)(C)O)ccc23)c(C)c1` [Compound 201], the figure is 0 to 25%; as for `CC(C)(O)Cn1ccc2c(NC(=O)c3cccc4c3OCCO4)cccc2c1=O` [Compound 222], 0 to 25%; as for `Cc1ccccc1CC(=O)Nc1cccc2c(=O)n(CC(C)(C)O)ccc12` [Compound 211], 0 to 25%.
On the same count and under the same terms, as for `COc1cc(CC(=O)Nc2cccc3c(=O)n(CC(C)(C)O)ccc23)cc(OC)c1` [Compound 219], the figure is 0 to 25%.
On the same count and under the same terms, as for `COc1ccc(OC)c(CC(=O)Nc2cccc3c(=O)n(CC(C)(C)O)ccc23)c1` [Compound 210], the figure is 0 to 25%.

Still in this experiment, the particulars now being: 0.3 μM compound (symbols +); differentiated THP-1 cells, BzATP 250 uM; read-out: IL-1β % Inhib. @ 0.3 or 0.1 uM.
Turning to `COc1ccc(CC(=O)Nc2cccc3c(=O)n(CCO)ccc23)cc1Br` [Compound 66], the inhibition at 0.3 µM was more than 76%.
Consider `O=C(CCc1ccccc1)Nc1cccc2c(=O)n(CCO)ccc12` [Compound 3], for which the inhibition at 0.3 µM was in the range of 51 to 75%.
The same measure, in the same setting: as for `CCC(C(=O)Nc1cccc2c(=O)n(CCO)ccc12)c1ccccc1` (stereo not drawn) [Compound 74], the figure is 0 to 25%; as for `COc1cccc(CC(=O)Nc2cccc3c(=O)n(CCO)ccc23)c1` [Compound 75], 0 to 25%.
The same measure, in the same setting: the same measure for `Cc1cc(C(=O)Nc2cccc3c(=O)n(CC4(O)CCCCC4)ccc23)ccc1Cl` [Compound 17]: 0 to 25%.
On the same count and under the same terms, the same measure for `O=C(Cc1ccc2c(c1)OCO2)Nc1cccc2c(=O)n(CC3(O)CCCCC3)ccc12` [Compound 38]: 0 to 25%; for `O=C(Cc1ccc(Cl)cc1Cl)Nc1cccc2c(=O)n(C(CO)CO)ccc12` [Compound 82]: 51 to 75%; for `COc1ccc(CC(=O)Nc2cccc3c(=O)n(CC4(O)CCCCC4)ccc23)cc1OC` [Compound 31]: 0 to 25%.
On to `COc1ccc(CC(=O)Nc2cccc3c(=O)n(CCO)ccc23)cc1` [Compound 2], for which the inhibition at 0.3 µM lay in the range of 0 to 25%.
Still for that read-out and setting: the same measure for `COc1ccc(C(=O)Nc2cccc3c(=O)n(C(CO)CO)ccc23)c(OC)c1` [Compound 5]: 0 to 25%.

Staying with this experiment, now noted: 0.3 μM compound; differentiated THP-1 cells, BzATP 250 uM; "+" symbols; read-out: IL-1β % Inhib. @ 0.3 or 0.1 uM.
As for `CC(C)(CO)n1ccc2c(NC(=O)Cc3ccc(Cl)c(F)c3)cccc2c1=O` [Compound 373], the inhibition at 0.3 µM was in the range of 51 to 75%.
For the compound `C[C@@H](C(N)=O)n1ccc2c(NC(=O)Cc3cccc(C(F)(F)F)c3F)cccc2c1=O` [Compound 349], the inhibition at 0.3 µM was more than 76%.
Consider `C[C@H](C(N)=O)n1ccc2c(NC(=O)Cc3cccc(Cl)c3)cccc2c1=O` [Compound 255], for which the inhibition at 0.3 µM is more than 76%.
Same read-out and setting: as for `CC(C)(CO)n1ccc2c(NC(=O)Cc3ccc(C(F)(F)F)c(F)c3)cccc2c1=O` [Compound 365], the figure is more than 76%; as for `C[C@H](C(N)=O)n1ccc2c(NC(=O)Cc3ccc(F)cc3F)cccc2c1=O` [Compound 293], more than 76%.
In the case of `C[C@@H](CO)n1ccc2c(NC(=O)Cc3ccc(Cl)cc3F)cccc2c1=O` [Compound 328], the inhibition at 0.3 µM lay within 51 to 75%.
On the same count and under the same terms, the same measure for `C[C@H](CO)n1ccc2c(NC(=O)Cc3ccc(Cl)cc3F)cccc2c1=O` [Compound 327]: more than 76%.
Same read-out and setting: the same measure for `C[C@H](C(=O)Nc1cccc2c(=O)n([C@@H](C(N)=O)c3ccccc3)ccc12)c1ccc(Cl)cc1` [Compound 279, (S)—N-[2-((R)-Carbamoyl-phenyl-methyl)-1-oxo-1,2-dihydro-isoquinolin-5-yl]-2-(4-chloro-phenyl)-propionamide]: more than 76%; for `C[C@@H](C(N)=O)n1ccc2c(NC(=O)Cc3ccc(Cl)c(F)c3)cccc2c1=O` [Compound 352]: more than 76%.
Still for that read-out and setting: the same measure for `CC(C)C[C@H](CO)n1ccc2c(NC(=O)[C@@H](C)c3ccc(Cl)cc3)cccc2c1=O` [Compound 271]: more than 76%; for `C[C@H](C(N)=O)n1ccc2c(NC(=O)Cc3ccc(Cl)c(Cl)c3)cccc2c1=O` [Compound 239]: more than 76%.
For `C[C@H](C(N)=O)n1ccc2c(NC(=O)Cc3ccc(C(F)(F)F)cc3C(F)(F)F)cccc2c1=O` [Compound 380], the inhibition at 0.3 µM is more than 76%.
On the same count and under the same terms, as for `CC(C)(CO)n1ccc2c(NC(=O)Cc3ccc(Cl)cc3F)cccc2c1=O` [Compound 374], the figure is more than 76%; as for `Cc1ccc(CC(=O)Nc2cccc3c(=O)n([C@H](C)C(N)=O)ccc23)cc1F` [Compound 302], more than 76%; as for `C[C@H](C(N)=O)n1ccc2c(NC(=O)Cc3ccc(-c4ccccc4)cc3)cccc2c1=O` [Compound 289], more than 76%.
Same read-out and setting: as for `O=C(Cc1ccc(Cl)cc1C(F)(F)F)Nc1cccc2c(=O)n(C(CO)CO)ccc12` [Compound 228], the figure is 51 to 75%; as for `CNC(=O)[C@@H](C(C)C)n1ccc2c(NC(=O)[C@H](C)c3ccc(Cl)cc3)cccc2c1=O` [Compound 277], more than 76%.
For `O=C(Cc1ccc(C(F)(F)F)cc1C(F)(F)F)Nc1cccc2c(=O)n(C(CO)CO)ccc12` [Compound 233], the inhibition at 0.3 µM was in the range of 26 to 50%.
On the same count and under the same terms, as for `CC(C(=O)Nc1cccc2c(=O)n(C[C@H]3CCCN3)ccc12)c1ccc(Cl)cc1` (stereo partly drawn) [Compound 242], the figure is 26 to 50%; as for `C[C@@H](CO)n1ccc2c(NC(=O)Cc3ccc(F)c(C(F)(F)F)c3)cccc2c1=O` [Compound 338], more than 76%.

Staying with this experiment, now noted: THP-1 cells, BzATP 250 uM, IL-1β by ELISA.
As a reminder, the IC50 is the concentration at which inhibition is half-maximal. A higher IC50 goes with weaker potency. Compound `CC(C(=O)Nc1cccc2c(=O)n(C[C@H]3CCCN3)ccc12)c1ccc(Cl)cc1` (stereo partly drawn) [Compound 242] returned a half-inhibitory concentration (IC50) of 356 nM.
